From patent US9102675B2, “3-Cyanoaryl-1H-pyrrolo[2,3-B] pyridine derivatives” (MERCK PATENT GMBH, priority 2011, dated 2015)

What follows are molecules tested on TBK1 + IKKε (assay: TBK1 + IKKε cell assay: dose response inhibition of phospho-IRF3 @ Ser 386 in MDA-MB-468 cells after poly(I:C) stimulation). Details: Homo sapiens, MDA-MB-468, MDA-MB-468 cells, nuclear phospho-IRF3 Ser386, read-out: TBK1 + IKKε cell assay IC50.
Format: cell-based
Source text: Dose response inhibition of phospho-IRF3 @ Ser 386 cell/MDAMB468/INH/PHOS/IMAG/pIRF3
Although TBK1 and IKKε are mainly known as key substances in the innate immune response, recent findings have indicated a role for TBK1 and IKKε in Ras-induced oncogenic transformation. TBK1 was identified as RaIB effector in the Ras-like (RaI)-guanine nucleotide exchange factor (GEF) pathway that is required for Ras-induced transformation. TBK1 directly activates IRF3 which, on phosphorylation, homodimerises and translocates to the nucleus, where it activates processes associated with inflammation, immune regulation, cell survival and proliferation.
This assay has been developed in order to assess the efficacy/potency of TBK1/IKKε inhibitor compounds based on the immunocytochemical detection of nucleus-localised phospho-IRF3, a target directly downstream of TBK1. Treatment with polyinosine-polycytidylic acid (poly(I:C), a synthetic analogue of double-stranded RNA (dsRNA), a molecular pattern associated with viral infection and recognised by Toll-like receptor 3 (TLR3) is used to induce TBK1/IKKε activity and IRF3 phosphorylation at Ser386.
Day 1: MDA-MB-468 cells are detached using HyQ-Tase, counted and sown into a 384-well plate with TC surface and clear bottom in a density of 10,000 cells per well in a total volume of 35 μl of complete medium. Alternatively, the cells are sown directly from frozen glass vials.
Day 2: The cells are pre-treated with inhibitor compounds for 1 h prior to poly(I:C) stimulation. After incubation for 2 h with poly(I:C), the cells are fixed in (para)formaldehyde (PFA) and permeabilised using methanol (MeOH). The cells are then blocked and incubated with an anti-pIRF3 antibody at 4° C. overnight.
Day 3: The primary antibody is washed off, an AlexaFluor488-conjugated secondary antibody is added, the cells are contrast-stained with propidium iodide, followed by image acquisition on an IMX ultra-high content reader.
Plating medium=culture medium: • RPMI 1640, Invitrogen #31870 • 10% of FCS, Invitrogen #10270-106 • 2 mM Glutamax, Invitrogen #35050-038 • 1 mM sodium pyruvate, Invitrogen #11360 • 1% of Pen/Strep • 37° C., 5% of CO2
Plates: 384-well bottom cell culture plates with black/clear bottom, Falcon #35 3962 or Greiner #781090
Subcultivation: HyQ-Tase, Thermo Scientific (HyClone) # SV30030.01
Poly(I:C) (LMW), Invitrogen # tlrl-picw (prepare 20 mg/ml stock solution in sterile PBS, denature 30 min 55° C. in a water bath, slowly cool to RT, store at −20° C. in aliquots)
a 10-point dose-response curve with MSC2119074A-4=BX-795 is included in each experiment
Formaldehyde (methanol-free, 16%, ultrapure EM grade), Polysciences #18814 (storage RT), final conc.: 4%
Goat serum, PAA # B15-035 (storage 4° C., long term −20° C.), final conc.: 10%
BSA (IgG- and protease-free, 30%), US-Biological # A1317 (storage 4° C., long term −20° C.), final conc.: 2%
Tween 20 detergent, Calbiochem #655204 (storage RT), (prepare 10% stock solution in water; final conc.: 0.1%)
Anti-pIRF-3 rabbit mAb, Epitomics #2526-B (storage −20° C.), final conc.: 1:2000 in PBS/2% of BSA
Alexa Fluor goat-anti-rabbit-488, Invitrogen # A11034 or # A11008 (storage 4° C., dark), final conc.: 1:2000 in PBS/2% of BSA/0.1% of Tween
Propidium iodide (PI), Fluka #81845, 1 mg/ml in H2O (storage 4° C., dark), final conc.: 0.2 μg/ml
(1) Sow 10,000 cells/well/35μof complete RPMI +10% FCS into 384-well bottom cell culture plates with black / clear bottom,
(2) Incubate for 2 h at room temperature on the bench, followed by further incubation for 22 h at 37° C., 5% of CO2 and 90% RH. […]

Compound	IC50
N#Cc1cc(-c2c[nH]c3ncc(-c4ccc(N5CCOCC5)cc4)cc23)ccc1OC1CCOCC1 [Compound A8, 5-[5-(4-morpholinophenyl)-1H-pyrrolo[2,3-b]pyridin-3-yl]-2-tetrahydropyran-4-yloxybenzonitrile]	3000 to 50000 nM
N#Cc1cc(-c2c[nH]c3ncc(-c4cnn(CCN5CCCC5)c4)cc23)ccc1OC1CCOCC1 [Compound A9, 5-[5-[1-(2-pyrrolidin-1-ylethyl)pyrazol-4-yl]-1H-pyrrolo[2,3-b]pyridin-3-yl]-2-tetrahydropyran-4-yloxybenzonitrile]	300 to 3000 nM
CN1CCC(Oc2ccc(-c3c[nH]c4ncc(-c5cnn(C)c5)cc34)cc2C#N)CC1 [Compound A13, 2-(1-methylpiperidin-4-yloxy)-5-[5-(1-methyl-1H-pyrazol-4-yl)-1H-pyrrolo[2,3-b]pyridin-3-yl]benzonitrile]	3000 to 50000 nM
N#Cc1cc(-c2c[nH]c3ncc(-c4cnn(CCO)c4)cc23)ccc1OC1CCOCC1 [Compound A15, 5-[5-[1-(2-hydroxyethyl)pyrazol-4-yl]-1H-pyrrolo[2,3-b]pyridin-3-yl]-2-tetrahydropyran-4-yloxybenzonitrile]	< 300 nM
CN1CCC(n2cc(-c3cnc4[nH]cc(-c5ccc(OC6CCOCC6)c(C#N)c5)c4c3)cn2)CC1 [Compound A16, 5-[5-[1-(1-methyl-4-piperidyl)pyrazol-4-yl]-1H-pyrrolo[2,3-b]pyridin-3-yl]-2-tetrahydropyran-4-yloxybenzonitrile]	< 300 nM
N#Cc1cc(-c2c[nH]c3ncc(-c4cnn(C5CCNCC5)c4)cc23)cnc1OC1CCOCC1 [Compound A18, 5-[5-[1-(4-piperidyl)pyrazol-4-yl]-1H-pyrrolo[2,3-b]pyridin-3-yl]-2-tetrahydropyran-4-yloxypyridine-3-carbonitrile]	300 to 3000 nM
N#Cc1cc(-c2c[nH]c3ncc(OCCN4CCOCC4)cc23)ccc1OC1CCOCC1 [Compound A21, 5-[5-(2-morpholinoethoxy)-1H-pyrrolo[2,3-b]pyridin-3-yl]-2-tetrahydropyran-4-yloxybenzonitrile]	300 to 3000 nM
N#Cc1cc(-c2c[nH]c3ncc(-c4cnn(C5COC5)c4)cc23)ccc1OC1CCOCC1 [Compound A26, 5-[5-[1-(Oxetan-3-yl)pyrazol-4-yl]-1H-pyrrolo[2,3-b]-pyridin-3-yl]-2-tetrahydropyran-4-yloxybenzonitrile]	< 300 nM
Cn1cc(-c2cnc3[nH]cc(-c4cnc(OC5CCOCC5)c(C#N)c4)c3c2)cn1 [Compound A30, 5-[5-(1-Methylpyrazol-4-yl)-1H-pyrrolo[2,3-b]pyridin-3-yl]-2-tetrahydropyran-4-yloxypyridine-3-carbonitrile]	300 to 3000 nM
Cn1cc(-c2cnc3[nH]cc(-c4ccc(OC5COC5)c(C#N)c4)c3c2)cn1 [Compound A31, 5-[5-(1-methyl-1H-pyrazol-4-yl)-1H-pyrrolo[2,3-b]pyridin-3-yl]-2-(oxetan-3-yloxy)benzonitrile]	3000 to 50000 nM
N#Cc1cc(-c2c[nH]c3ncc(-c4cnn(CCN5CCCC5)c4)cc23)cnc1OC1CCOCC1 [Compound A33, 5-{5-[1-(2-Pyrrolidin-1-ylethyl)-1H-pyrazol-4-yl]-1H-pyrrolo[2,3-b]pyridin-3-yl}-2-(tetrahydropyran-4-yl-oxy)nicotinonitrile]	300 to 3000 nM
N#Cc1cc(-c2c[nH]c3ncc(-c4cnn(C5COC5)c4)cc23)ccc1OC1COC1 [Compound A34, 2-(oxetan-3-yloxy)-5-[5-(1-oxetan-3-yl-1H-pyrazol-4-yl)-1H-pyrrolo-[2,3-b]pyridin-3-yl]benzonitrile]	3000 to 50000 nM
CC1(COc2ccc(-c3c[nH]c4ncc(-c5cnn(C6COC6)c5)cc34)cc2C#N)COC1 [Compound A35, 2-(3-methyloxetan-3-ylmethoxy)-5-[5-(1-oxetan-3-yl-1H-pyrazol-4-yl)-1H-pyrrolo[2,3-b]-pyridin-3-yl]benzonitrile]	300 to 3000 nM

The next lines start with the values.

IC50	Compound
3000 to 50000 nM	N#Cc1cc(-c2c[nH]c3ncccc23)ccc1OC1CCOCC1 [Compound A1, 5-(1H-pyrrolo[2,3-b]pyridin-3-yl)-2-tetrahydropyran-4-yloxybenzonitrile]
300 to 3000 nM	Cn1cc(-c2cnc3[nH]cc(-c4ccc(OC5CCOCC5)c(C#N)c4)c3c2)cn1 [Compound A4, 5-[5-(1-methylpyrazol-4-yl)-1H-pyrrolo[2,3-b]pyridin-3-yl]-2-tetrahydropyran-4-yloxybenzonitrile]
300 to 3000 nM	N#Cc1cc(-c2c[nH]c3ncc(-c4cnn(CCN5CCOCC5)c4)cc23)ccc1OC1CCOCC1 [Compound A7, 5-[5-[1-(2-morpholinoethyl)pyrazol-4-yl]-1H-pyrrolo[2,3-b]pyridin-3-yl]-2-tetrahydropyran-4-yloxybenzonitrile]
< 300 nM	COCCn1cc(-c2cnc3[nH]cc(-c4ccc(OC5CCOCC5)c(C#N)c4)c3c2)cn1 [Compound A10, 5-[5-[1-(2-methoxyethyl)pyrazol-4-yl]-1H-pyrrolo[2,3-b]pyridin-3-yl]-2-tetrahydropyran-4-yloxybenzonitrile]
300 to 3000 nM	N#Cc1cc(-c2c[nH]c3ncc(-c4cnn(C5CCNCC5)c4)cc23)ccc1OC1CCOCC1 [Compound A12, 5-[5-(1-piperidin-4-yl-1H-pyrazol-4-yl)-1H-pyrrolo[2,3-b]pyridin-3-yl]-2-(tetrahydropyran-4-yloxy)benzonitrile]
3000 to 50000 nM	CN1CCN(c2cnc3[nH]cc(-c4ccc(OC5CCOCC5)c(C#N)c4)c3c2)CC1 [Compound A17, 5-[5-(4-methylpiperazin-1-yl)-1H-pyrrolo[2,3-b]pyridin-3-yl]-2-tetrahydropyran-4-yloxybenzonitrile]
300 to 3000 nM	CC1(COc2ccc(-c3c[nH]c4ncc(-c5cnn(C6CCNCC6)c5)cc34)cc2C#N)COC1 [Compound A24, 2-[(3-Methyloxetan-3-yl)methoxy]-5-[5-[1-(4-piperidyl)pyrazol-4-yl]-1H-pyrrolo[2,3-b]pyridin-3-yl]-benzonitrile]
300 to 3000 nM	N#Cc1cc(-c2c[nH]c3ncc(-c4cn(CCN5CCCC5)nn4)cc23)ccc1OC1CCOCC1 [Compound A27, 5-[5-[1-(2-Pyrrolidin-1-ylethyl)triazol-4-yl]-1H-pyrrolo-[2,3-b]pyridin-3-yl]-2-tetrahydropyran-4-yloxybenzo-nitrile]
300 to 3000 nM	Cn1cc(-c2cnc3[nH]cc(-c4ccc(OCC5(C)COC5)c(C#N)c4)c3c2)cn1 [Compound A32, 2-(3-methyloxetan-3-ylmethoxy)-5-[5-(1-methyl-1H-pyrazol-4-yl)-1H-pyrrolo[2,3-b]pyridin-3-yl]benzonitrile]

Same assay, conditions: MDA-MB-468 cells, nuclear phospho-IRF3 Ser386, read-out: TBK1 + IKKε cell assay IC50

Compound	IC50
CN1CCC(n2cc(-c3cnc4[nH]cc(-c5ccc(OC6CCOCC6)c(C#N)c5)c4c3)cn2)CC1 [Compound A20, 5-[5-[1-(1-methyl-4-piperidyl)pyrazol-4-yl]-1H-pyrrolo[2,3-b]pyridin-3-yl]-2-tetrahydropyran-4-yloxybenzonitrile]	300 to 3000 nM
N#Cc1cc(-c2c[nH]c3ncc(-c4cn(C5CCNCC5)nn4)cc23)ccc1OC1CCOCC1 [Compound A22, 5-[5-[1-(4-piperidyl)triazol-4-yl]-1H-pyrrolo[2,3-b]pyridin-3-yl]-2-tetrahydropyran-4-yloxybenzonitrile]	300 to 3000 nM
CN1CCC(n2cc(-c3cnc4[nH]cc(-c5ccc(OC6CCOCC6)c(C#N)c5)c4c3)nn2)CC1 [Compound A23, 5-[5-[1-(1-methyl-4-piperidyl)triazol-4-yl]-1H-pyrrolo[2,3-b]pyridin-3-yl]-2-tetrahydropyran-4-yloxybenzonitrile]	300 to 3000 nM
